# Patent EP2964612B1, “P[…] AND THEIR USE AS FLUORESCENT LABELS” (Illumina Cambridge Limited, priority 2013, dated 2014)
# Molecular target: T1, Pol 957 EA (Thermococcus sp., UniProt Q56366)
# T1 sequence (Q56366 1-775): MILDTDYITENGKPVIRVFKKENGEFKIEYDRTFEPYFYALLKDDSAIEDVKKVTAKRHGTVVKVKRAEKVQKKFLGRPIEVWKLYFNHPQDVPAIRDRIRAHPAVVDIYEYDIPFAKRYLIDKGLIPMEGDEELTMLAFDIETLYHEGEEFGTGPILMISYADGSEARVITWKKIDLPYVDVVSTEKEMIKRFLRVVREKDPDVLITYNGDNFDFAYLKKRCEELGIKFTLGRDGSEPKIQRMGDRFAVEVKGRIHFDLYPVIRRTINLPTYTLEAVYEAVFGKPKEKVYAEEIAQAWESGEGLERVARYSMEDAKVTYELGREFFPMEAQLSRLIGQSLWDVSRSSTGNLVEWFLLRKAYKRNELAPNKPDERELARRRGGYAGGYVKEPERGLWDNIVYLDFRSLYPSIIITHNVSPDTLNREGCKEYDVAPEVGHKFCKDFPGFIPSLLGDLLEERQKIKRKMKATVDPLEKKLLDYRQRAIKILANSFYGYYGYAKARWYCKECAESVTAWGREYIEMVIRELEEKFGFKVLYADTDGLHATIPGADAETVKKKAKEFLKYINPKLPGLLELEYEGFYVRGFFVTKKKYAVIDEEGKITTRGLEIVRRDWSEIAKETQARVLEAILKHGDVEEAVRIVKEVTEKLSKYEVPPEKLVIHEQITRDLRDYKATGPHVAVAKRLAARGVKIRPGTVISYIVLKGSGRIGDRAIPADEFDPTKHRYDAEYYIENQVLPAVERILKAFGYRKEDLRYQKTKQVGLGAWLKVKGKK
# Test: Binding affinity of labelled 3'-azidomethylthymidine triphosphates to the polymerase (Table 2)
smiles,measurement,value
Cc1cn([C@H]2C[C@H](OCN=[N+]=[N-])[C@@H](COP(=O)(O)OP(=O)(O)OP(=O)(O)O)O2)c(=O)[nH]c1=O [Dark ffT],Kd,550 nM
